Experimental data from US6528500B1, “Azole derivatives or salts thereof” (SSP Co., Ltd., priority 1999, dated 2003).
Values after ≈ are worked out from the molar mass of the structure shown. Structures can show the parent of a compound that is named as a salt.

Tests used:
[1] = Aqueous solubility comparison; assay type: physicochemical; conditions: water (aqueous solubility), parent compound in the form of a free base
Excerpt: The compound obtained in Example 1 was compared in aqueous solubility with a parent (non-phosphorylated) compound (in the form of a free base).

[2] = tested on: C. albicans IFM 40009; assay: In vivo activities against the Candida albicans murine model; conditions: male ICR mice, C. albicans IFM 40009 3×10^6 cells/mouse i.v.; 1 mg/kg intravenously once daily for 4 days; observed 14 days; ***P < 0.001 relative to Infection control
Description: Four-week-old male ICR mice were fasted for 6 hours. The mice were inoculated at 3×10^6 cells/mouse of C. albicans IFM 40009 into the tail vein. The infection control group and the drug-treated group consisted of 10 and 5 animals, respectively. The compound of Example 1 and the parent compound were dissolved in 20% polyethylene glycol 200. The drug solutions were intravenously administered at the dose of 1 mg/kg once daily for 4 consecutive days after infection. […] Paired comparison of duration of survival between the infection control and drug-treated groups were analyzed by Log-Rank test.

Compound | solubility [1] [µg/mL] | Average surviving days [2] | melting point [°C]
CCS(=O)(=O)C(F)(F)C(O)(Cn1cncn1)c1ccc(F)cc1F (single isomer, unassigned; (-)) [Parent compound, (−)-2-(2,4-difluorophenyl)-1-(ethylsulfonyl)-1,1-difluoro-3-(1H-1,2,4-triazol-1-yl)-2-propanol, reference compound] | 500 (≈ 1360 µM) | 14.0*** days | 
CS(=O)(=O)C(F)(F)C(Cn1cncn1)(OP(=O)(O)O)c1ccc(F)cc1F (centres unmarked) (as salt: phosphate) |  |  | 216 to 218
CCS(=O)(=O)C(F)(F)C(Cn1cncn1)(OP(=O)(O)O)c1ccc(F)cc1F (single isomer, unassigned; (+)) [Example 1, (+)-1-(2,4-difluorophenyl)-2-(ethylsulfonyl)-2,2-difluoro-1-(1H-1,2,4-triazole-1-ylmethyl)ethyl Dihydrogen Phosphate] | 4800 | 14.0*** days | 
